# Laboratory results published in ChEMBL document CHEMBL1909046, “DrugMatrix in vitro pharmacology data”.
# Experiments:
# [1] = DRUGMATRIX: Phosphodiesterase PDE4 enzyme inhibition (substrate: [3H]cAMP + cAMP); conditions: u-937; Not Active = under 50% inhibition at 10 µM
# [2] = molecular target: T1, Substance-K receptor (Homo sapiens, UniProt P21452); type: cell membranes, CHO, Membrane; conditions: cho; note: in other assays of this panel Not Active means under 50% inhibition at 10 µM
# T1 sequence (P21452 whole entry): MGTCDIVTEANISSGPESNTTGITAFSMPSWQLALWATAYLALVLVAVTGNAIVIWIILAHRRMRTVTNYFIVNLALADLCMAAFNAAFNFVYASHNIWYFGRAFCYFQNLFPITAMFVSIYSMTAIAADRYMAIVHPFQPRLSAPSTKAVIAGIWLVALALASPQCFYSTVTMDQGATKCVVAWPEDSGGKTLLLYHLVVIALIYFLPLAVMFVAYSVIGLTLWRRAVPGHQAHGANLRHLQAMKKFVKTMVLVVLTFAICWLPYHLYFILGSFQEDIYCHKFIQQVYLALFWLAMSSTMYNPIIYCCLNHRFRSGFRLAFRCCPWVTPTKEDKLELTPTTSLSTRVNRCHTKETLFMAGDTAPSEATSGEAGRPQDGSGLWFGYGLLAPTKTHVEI
# [3] = DRUGMATRIX: Serotonin (5-Hydroxytryptamine) 5-HT3 radioligand binding (ligand: [3H] GR-65630); type: cell membranes, Membrane; conditions: hek293; Not Active = under 50% inhibition at 10 µM
# [4] = molecular target: T2, Muscarinic acetylcholine receptor M4 (Homo sapiens, UniProt P08173); type: cell membranes, CHO-K1, Membrane; note: in other assays of this panel Not Active means under 50% inhibition at 10 µM
# T2 sequence (P08173 whole entry): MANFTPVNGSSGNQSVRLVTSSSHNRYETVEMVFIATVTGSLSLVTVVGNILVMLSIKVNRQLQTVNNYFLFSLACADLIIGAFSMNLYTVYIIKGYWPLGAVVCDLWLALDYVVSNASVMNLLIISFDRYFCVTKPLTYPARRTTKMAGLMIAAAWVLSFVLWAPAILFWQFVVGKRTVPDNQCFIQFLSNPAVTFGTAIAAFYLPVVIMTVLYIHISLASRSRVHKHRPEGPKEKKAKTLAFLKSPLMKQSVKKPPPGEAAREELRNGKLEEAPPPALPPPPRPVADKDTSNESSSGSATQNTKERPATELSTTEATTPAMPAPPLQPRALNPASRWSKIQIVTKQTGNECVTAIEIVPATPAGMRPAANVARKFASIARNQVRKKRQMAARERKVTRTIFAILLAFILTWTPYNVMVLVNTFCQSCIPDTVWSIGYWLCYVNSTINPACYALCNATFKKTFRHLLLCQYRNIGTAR
# [5] = molecular target: Tyrosine-protein kinase Fyn (Homo sapiens, UniProt P06241); assay: biochemical; type: cell-based, Insect cells;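 note: enzymatic inhibition of Fyn kinase activity measured with Poly(Glu:Tyr) as the phosphorylation substrate; in other assays of this panel Not Active means under 50% inhibition at 10 µM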
# [6] = DRUGMATRIX: Nicotinic Acetylcholine radioligand binding (ligand: [125I] Epibatidine); type: cell membranes, Membrane; conditions: imr-32; Not Active = under 50% inhibition at 10 µM
# [7] = molecular target: Sodium-dependent dopamine transporter (Homo sapiens, UniProt Q01959); assay: DRUGMATRIX: Dopamine Transporter radioligand binding (ligand: [125I] RTI-55); type: cell membranes, CHO-K1, Membrane; conditions: Not Active = under 50% inhibition at 10 µM
# [8] = molecular target: T3, Muscarinic acetylcholine receptor M5 (Homo sapiens, UniProt P08912); type: cell membranes, CHO-K1, Membrane; conditions: cho-k1; note: in other assays of this panel Not Active means under 50% inhibition at 10 µM
# T3 sequence (P08912 whole entry): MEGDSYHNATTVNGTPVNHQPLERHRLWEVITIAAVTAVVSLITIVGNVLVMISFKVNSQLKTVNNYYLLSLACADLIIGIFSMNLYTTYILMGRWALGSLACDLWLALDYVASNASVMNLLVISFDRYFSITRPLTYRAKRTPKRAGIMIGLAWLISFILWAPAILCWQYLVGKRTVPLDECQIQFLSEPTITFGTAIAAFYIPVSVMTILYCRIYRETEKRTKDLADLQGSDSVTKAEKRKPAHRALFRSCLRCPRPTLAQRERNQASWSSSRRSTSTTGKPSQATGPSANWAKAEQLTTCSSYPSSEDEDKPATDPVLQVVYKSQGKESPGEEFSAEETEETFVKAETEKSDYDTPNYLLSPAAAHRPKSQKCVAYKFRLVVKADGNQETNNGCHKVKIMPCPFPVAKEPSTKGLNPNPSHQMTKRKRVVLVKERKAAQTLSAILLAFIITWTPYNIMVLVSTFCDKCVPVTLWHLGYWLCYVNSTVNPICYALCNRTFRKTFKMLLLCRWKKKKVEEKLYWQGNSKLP
# [9] = molecular target: Carbonic anhydrase 2 (Homo sapiens, UniProt P00918); assay: DRUGMATRIX: Carbonic Anhydrase II enzyme inhibition (substrate: 4-Nitrophenyl acetate (4-NPA)); type: tissue-based, Erythrocyte; conditions: erythrocyte; Not Active = under 50% inhibition at 10 µM
# [10] = molecular target: T4, Neuropeptide Y receptor type 1 (Homo sapiens, UniProt P25929); type: cell membranes, Membrane; conditions: sk-n-mc; note: in other assays of this panel Not Active means under 50% inhibition at 10 µM
# T4 sequence (P25929 whole entry): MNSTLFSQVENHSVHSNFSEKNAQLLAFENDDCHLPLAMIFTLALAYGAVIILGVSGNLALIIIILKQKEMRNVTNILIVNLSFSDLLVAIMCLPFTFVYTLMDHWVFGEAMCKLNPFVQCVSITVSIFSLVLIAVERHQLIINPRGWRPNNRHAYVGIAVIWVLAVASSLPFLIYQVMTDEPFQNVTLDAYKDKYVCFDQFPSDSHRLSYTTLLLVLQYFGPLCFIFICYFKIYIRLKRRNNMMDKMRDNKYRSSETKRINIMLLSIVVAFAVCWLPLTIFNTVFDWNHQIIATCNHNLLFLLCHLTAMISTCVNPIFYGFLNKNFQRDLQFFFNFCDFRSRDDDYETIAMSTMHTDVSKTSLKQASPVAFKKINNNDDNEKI
# [11] = DRUGMATRIX: Glutamate, NMDA, Agonism radioligand binding (ligand: [3H] CGP-39653); type: cell membranes, Rattus norvegicus, Wistar, Cerebral cortex, Membrane; conditions: Not Active = under 50% inhibition at 10 µM
# [12] = molecular target: Histamine H2 receptor (Homo sapiens, UniProt P25021); type: cell membranes, CHO-K1, Membrane; conditions: cho-k1; note: in other assays of this panel Not Active means under 50% inhibition at 10 µM
# [13] = molecular target: Mu-type opioid receptor (Homo sapiens, UniProt P35372); assay: DRUGMATRIX: Opiate mu (OP3, MOP) radioligand binding (ligand: [3H] Diprenorphine); type: cell membranes, CHO-K1, Membrane; conditions: cho-k1; Not Active = under 50% inhibition at 10 µM
# Chain of Mu-type opioid receptor (P35372 whole entry): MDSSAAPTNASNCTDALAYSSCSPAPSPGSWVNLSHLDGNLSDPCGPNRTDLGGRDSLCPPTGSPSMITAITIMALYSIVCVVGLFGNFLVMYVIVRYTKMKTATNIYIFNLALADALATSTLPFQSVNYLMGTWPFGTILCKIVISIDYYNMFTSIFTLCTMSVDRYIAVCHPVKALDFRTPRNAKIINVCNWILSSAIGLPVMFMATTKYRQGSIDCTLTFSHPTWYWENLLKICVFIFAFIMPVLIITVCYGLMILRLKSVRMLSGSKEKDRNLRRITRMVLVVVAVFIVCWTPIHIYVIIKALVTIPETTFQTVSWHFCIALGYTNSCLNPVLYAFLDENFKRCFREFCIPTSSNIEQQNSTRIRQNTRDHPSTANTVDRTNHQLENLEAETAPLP
# Chain of Tyrosine-protein kinase Fyn (P06241 whole entry): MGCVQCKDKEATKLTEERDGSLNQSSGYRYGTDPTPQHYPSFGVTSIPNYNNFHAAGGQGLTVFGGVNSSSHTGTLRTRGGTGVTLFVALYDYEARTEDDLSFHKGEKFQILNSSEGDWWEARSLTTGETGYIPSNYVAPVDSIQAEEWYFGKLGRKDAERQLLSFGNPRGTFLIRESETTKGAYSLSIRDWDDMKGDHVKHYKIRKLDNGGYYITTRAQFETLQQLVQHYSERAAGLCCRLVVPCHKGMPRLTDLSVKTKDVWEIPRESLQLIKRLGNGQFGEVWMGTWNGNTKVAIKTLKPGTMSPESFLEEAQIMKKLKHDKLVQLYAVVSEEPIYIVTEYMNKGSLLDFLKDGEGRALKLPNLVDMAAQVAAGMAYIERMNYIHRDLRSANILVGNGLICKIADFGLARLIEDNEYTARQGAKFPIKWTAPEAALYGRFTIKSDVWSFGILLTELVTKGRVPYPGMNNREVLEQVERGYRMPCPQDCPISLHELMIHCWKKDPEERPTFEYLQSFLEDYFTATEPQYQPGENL
# Chain of Sodium-dependent dopamine transporter (Q01959 whole entry): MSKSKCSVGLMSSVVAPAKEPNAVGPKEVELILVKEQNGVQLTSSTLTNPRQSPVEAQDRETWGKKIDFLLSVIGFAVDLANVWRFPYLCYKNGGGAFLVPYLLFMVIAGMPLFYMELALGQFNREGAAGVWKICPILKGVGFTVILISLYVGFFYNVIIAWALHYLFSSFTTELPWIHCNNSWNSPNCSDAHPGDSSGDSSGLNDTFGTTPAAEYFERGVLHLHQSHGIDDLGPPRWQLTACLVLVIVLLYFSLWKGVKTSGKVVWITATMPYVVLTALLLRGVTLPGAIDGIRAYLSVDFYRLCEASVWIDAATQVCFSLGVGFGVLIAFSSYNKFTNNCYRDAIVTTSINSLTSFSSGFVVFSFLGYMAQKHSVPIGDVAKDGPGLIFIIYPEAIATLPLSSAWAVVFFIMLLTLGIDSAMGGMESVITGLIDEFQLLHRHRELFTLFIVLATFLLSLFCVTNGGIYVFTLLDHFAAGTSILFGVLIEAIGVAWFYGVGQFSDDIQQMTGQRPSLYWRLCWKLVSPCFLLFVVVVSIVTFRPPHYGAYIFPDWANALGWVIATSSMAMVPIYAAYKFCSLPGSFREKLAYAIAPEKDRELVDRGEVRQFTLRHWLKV
# Chain of Histamine H2 receptor (P25021 whole entry): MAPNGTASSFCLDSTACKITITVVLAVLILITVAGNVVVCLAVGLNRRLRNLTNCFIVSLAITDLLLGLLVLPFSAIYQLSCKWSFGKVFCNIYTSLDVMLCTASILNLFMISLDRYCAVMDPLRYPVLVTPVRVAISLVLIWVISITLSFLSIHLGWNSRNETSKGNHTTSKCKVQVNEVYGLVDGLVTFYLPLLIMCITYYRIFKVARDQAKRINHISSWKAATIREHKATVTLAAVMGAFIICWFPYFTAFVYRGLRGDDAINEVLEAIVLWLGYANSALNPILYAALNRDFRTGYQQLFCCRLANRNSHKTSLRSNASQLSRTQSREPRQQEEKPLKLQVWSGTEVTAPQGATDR
Structure (SMILES),IC50 [1],Ki [1],IC50 [2],IC50 [3],Ki [3],IC50 ([4]; cho-k1),IC50 ([5]; insect cells),IC50 [6],Ki [6],IC50 ([7]; cho-k1),IC50 [8],IC50 [9],IC50 [10],IC50 [11],Ki [11],IC50 [12],IC50 [13],other results
Nc1nnc(-c2cccc(Cl)c2Cl)c(N)n1 [LAMOTRIGINE],Not Active,Not Active,Not Active,Not Active,Not Active,Not Active,Not Active,Not Active,Not Active,Not Active,Not Active,Not Active,Not Active,Not Active,Not Active,Not Active,Not Active,–
CCC[C@@H]1C[C@@H](C(=O)N[C@@H]([C@H]2O[C@H](SC)[C@H](O)[C@@H](O)[C@H]2O)[C@@H](C)O)N(C)C1 [LINCOMYCIN],Not Active,Not Active,Not Active,Not Active,Not Active,Not Active,Not Active,Not Active,Not Active,Not Active,Not Active,Not Active,Not Active,Not Active,Not Active,Not Active,Not Active,–
NCCCC[C@H](N[C@@H](CCc1ccccc1)C(=O)O)C(=O)N1CCC[C@H]1C(=O)O [LISINOPRIL ANHYDROUS],Not Active,Not Active,Not Active,Not Active,Not Active,Not Active,Not Active,Not Active,Not Active,Not Active,Not Active,Not Active,Not Active,Not Active,Not Active,Not Active,Not Active,–
COS(C)(=O)=O [METHANESULFONIC ACID METHYL ESTER],Not Active,Not Active,Not Active,Not Active,Not Active,Not Active,Not Active,Not Active,Not Active,Not Active,Not Active,Not Active,Not Active,Not Active,Not Active,Not Active,Not Active,–
COC(=O)c1ccc(O)cc1 [METHYLPARABEN],Not Active,Not Active,Not Active,Not Active,Not Active,Not Active,Not Active,Not Active,Not Active,Not Active,Not Active,Not Active,Not Active,Not Active,Not Active,Not Active,Not Active,–
C[C@](N)(Cc1ccc(O)cc1)C(=O)O [METYROSINE],Not Active,Not Active,Not Active,Not Active,Not Active,Not Active,Not Active,Not Active,Not Active,Not Active,Not Active,Not Active,Not Active,Not Active,Not Active,Not Active,Not Active,–
Clc1ccc(C(c2ccccc2Cl)C(Cl)Cl)cc1 (stereo not given) [MITOTANE],Not Active,Not Active,Not Active,Not Active,Not Active,Not Active,Not Active,Not Active,Not Active,–,Not Active,Not Active,Not Active,Not Active,Not Active,Not Active,Not Active,IC50 ([7]; read-out: IC50): 1000 nM; Ki ([7]; read-out: Ki): 795 nM
O=C1c2c(O)ccc(O)c2C(=O)c2c(NCCNCCO)ccc(NCCNCCO)c21 [MITOXANTRONE],Not Active,Not Active,Not Active,Not Active,Not Active,–,–,Not Active,Not Active,Not Active,Not Active,Not Active,Not Active,Not Active,Not Active,Not Active,Not Active,IC50 ([4]; read-out: IC50): 644 nM; Ki ([4]; read-out: Ki): 89.8 nM; IC50 ([5]; read-out: IC50): 1260 nM
COc1c(C)c2c(c(O)c1C/C=C(\C)CCC(=O)OCCN1CCOCC1)C(=O)OC2 [MYCOPHENOLATE MOFETIL],Not Active,Not Active,Not Active,Not Active,Not Active,Not Active,Not Active,Not Active,Not Active,Not Active,Not Active,Not Active,Not Active,Not Active,Not Active,Not Active,Not Active,–
